The values below come from patent US20200000775A1, “ATTENUATION OF NEUROPATHIC PAIN AFTER SPINAL CORD INJURY” (University of Kentucky Research Foundation, priority 2018, published 2020).

The conditions of data set [1]: cited from earlier work.
The conditions of data set [2]: rats, pigs, sheep, dogs or humans; cited from earlier work.
Data set [3] has as its system rat excitotoxic SCI pain model. Kind of data set: Spontaneous pain-related excessive grooming behavior after excitotoxic SCI (intraspinal QUIS). It is filed as in vivo. From the text:
Male Sprague-Dawley (SD) adult rats at 3 months, weighing 220-250 g, were used (Charles River, Indianapolis, Ind.). Rats were kept under standard housing conditions (12:12 light and dark cycle) with food and water ad libitum for at least 1 week following arrival in an enclosed, pathogen-free animal facility. All experimental procedures were approved and carried out in accordance with the Guidelines of the US National Institutes of Health and Institutional Animal Care and Use Committee (IACUC) of the University of Kentucky.
Excitotoxic SCI was produced by intraspinal injection of the glutamatergic AMPA/metabotropic receptor agonist quisqualic acid (QUIS) as previously described. Briefly, rats were anesthetized with a mixture of ketamine and xylazine (intraperitoneally, IP). Animals were placed in a stereotaxic unit and the spinal column immobilized with a vertebral clamp. One injection window for intraspinal injection was made by laminectomy between spinal segments T12-L1. Injections of 125 mM QUIS was made unilaterally at three levels of the cord by convection enhanced delivery. Injections, spaced 0.3 mm apart, were made at a depth of 1000 μm below the surface in segments T12-L1 between the dorsal root entry zone and the dorsal vein. These coordinates place injections in the center of the gray matter between spinal laminae IV-VI. The total volume of QUIS injected was 1.2 μl (0.4 μl each site, delivered over 4 minutes). Following injections, muscles were sutured over the laminectomy site, and the skin closed with wound clips.
(§1) Twenty-four male SD rats were randomly assigned to three groups: (A) FluBZ treatment plus intraspinal injection of QUIS (n=10); (B) vehicle treatment plus intraspinal injection of QUIS (n=10); and (C) Sham operation (intraspinal injection of saline, n=4). Assessment of excessive grooming behavior was used to evaluate the effects of FluBZ or vehicle on the development of the spontaneous pain behavior following excitotoxic SCI. The survival time of animals consisted of a period of 4 weeks or until tissue damage progressed beyond the superficial layers of skin, at which time (<4 weeks) animals were euthanized. […]
Assessment of the spontaneous pain-related excessive grooming behavior was performed as described in previous studies. […] Quantitative analysis of spontaneous excessive grooming pain behavior consisted of the incidence, onset time, mean area of skin damage, and severity of overgrooming pain behaviors for all animals as previously described.
Data related to the onset time, area of grooming-induced skin damage, and immunofluorescent number of object and mean intensity are expressed as mean ±standard error of mean (SEM) and analyzed by using a commercially available computer program (StatView; SAS Institute, Inc, Cary, N.C.). […]

Another data set has as its system acetylated α-tubulin. The data set is described as follows: Immunofluorescence of acetylated α-tubulin in spinal dorsal horn after excitotoxic SCI. It is filed as in vivo, rat. The conditions noted are these: IP for 7 days from 3 h post-QUIS; lesion site, 28 days after injury; vs vehicle, p<0.001.
Excerpt: as §1, with “euthanized. FluBZ (10 mg/kg/day) or vehicle was intraperitoneally injected once daily for a period of 7 days post-injection of QUIS. The FluBZ or vehicle treatment began at 3 h post-QUIS injection. FluBZ (Sigma) was dissolved in 0.9% saline plus 0.01% Tween 80 (Vehicle).” for “euthanized.”
(§2) The stereological analysis of image data within dorsal horn of spinal cord in sham or QUIS-injured animals with treatment of FluBZ or vehicle will be performed using NIS-Elements AR program. Serial double-labeled immunofluorescent signal images of spinal cord sections at lesion epicenter and 2 mm rostral and caudal to the lesion site were analyzed using methods of Binary Layers and Automated Measurement Results. […]

In data set [4] the test system is α-tubulin N-acetyltransferase ATAT1/MEC-17. The data set is described as follows: Immunofluorescence of α-tubulin acetyltransferase MEC-17 in spinal dorsal horn after excitotoxic SCI. Conditions: IP for 7 days from 3 h post-QUIS; lesion site, 28 days after injury; vs vehicle, p<0.01. It is filed as in vivo, rat.
Excerpt: as §1, with “euthanized. FluBZ (10 mg/kg/day) or vehicle was intraperitoneally injected once daily for a period of 7 days post-injection of QUIS. The FluBZ or vehicle treatment began at 3 h post-QUIS injection. FluBZ (Sigma) was dissolved in 0.9% saline plus 0.01% Tween 80 (Vehicle).” for “euthanized.”
as §2

A further data set concerns endosomal EEA1-NR1. The data set is described as follows: Immunofluorescence of endosomal EEA1-NMDAR1 (NR1) dual signal in spinal dorsal horn after excitotoxic SCI. It is filed as in vivo, rat. Conditions: post-treatment, 28 days post-excitotoxic injury; vs vehicle, p<0.001.
Excerpt: as §1, with “euthanized. FluBZ (10 mg/kg/day) or vehicle was intraperitoneally injected once daily for a period of 7 days post-injection of QUIS. The FluBZ or vehicle treatment began at 3 h post-QUIS injection. FluBZ (Sigma) was dissolved in 0.9% saline plus 0.01% Tween 80 (Vehicle).” for “euthanized.”
as §2

A further data set deals with endosomal EEA1-pERK1/2. Kind of data set: Immunofluorescence of endosomal EEA1-pERK1/2 dual signal in spinal dorsal horn after excitotoxic SCI. It is filed as in vivo, rat. Conditions: IP treatment, 28 days post-injury; vs vehicle, p<0.001.
Excerpt: as §1, with “euthanized. FluBZ (10 mg/kg/day) or vehicle was intraperitoneally injected once daily for a period of 7 days post-injection of QUIS. The FluBZ or vehicle treatment began at 3 h post-QUIS injection. FluBZ (Sigma) was dissolved in 0.9% saline plus 0.01% Tween 80 (Vehicle).” for “euthanized.”
as §2

Another data set has as its system mitochondrial cyclin B1. Kind of data set: Immunofluorescence of mitochondrial cyclin B1 (cyclin B1/VDAC1 dual signal) in spinal dorsal horn after excitotoxic SCI. It is filed as in vivo, rat. Conditions: 10 mg/kg/day for 7 days post-injury; 28 days following injury; vs vehicle, p<0.001.
Excerpt: as §1, with “euthanized. FluBZ (10 mg/kg/day) or vehicle was intraperitoneally injected once daily for a period of 7 days post-injection of QUIS. The FluBZ or vehicle treatment began at 3 h post-QUIS injection. FluBZ (Sigma) was dissolved in 0.9% saline plus 0.01% Tween 80 (Vehicle).” for “euthanized.”
as §2

Turning to `COC(=O)Nc1nc2ccc(Sc3ccccc3)cc2[nH]1` [FBZ, fenbendazole], the “solubility in aqueous systems” value in data set [1] is “poorly soluble”. In data set [2], the “bioavailability after oral treatment” value is “very low”.
`COC(=O)Nc1nc2cc(C(=O)c3ccc(F)cc3)ccc2[nH]1` [FluBZ, Flubendazole]: the “incidence of pain behavior” value in data set [3] (10 mg/kg/day IP for 7 days, starting 3 h post-injury, vehicle-treated control 75%) is 40%. Further, the “onset of excessive grooming pain behaviors” value in data set [3] (10 mg/kg/day IP once daily for 7 days, starting 3 h post-QUIS, vehicle average onset 11 days, n=10) is recorded as 19 days after excitotoxic injury. In addition, the “size of the grooming area (skin damage)” value in data set [3] (10 mg/kg/day for one week post-excitotoxic injury, vs vehicle, p<0.001) is “significant reduction”. Also, in data set [3] (10 mg/kg/day for one week post-excitotoxic injury, vs vehicle, p<0.01), the “severity of grooming class” value is “significant reduction”. In the data set on acetylated α-tubulin, the “α-tubulin acetylation in the spinal dorsal horn” value was “significantly decreased”. In addition, in data set [4], the “expression of acetyltransferase MEC-17 in the spinal dorsal horn” value was “significantly decreased”. Besides, the “endosomal EEA1-NR1 fluorescent signals in the dorsal horn” value in the data set on endosomal EEA1-NR1 was “significantly suppressed”. In the data set with endosomal EEA1-pERK1/2, the “endosomal EEA1-pERK1/2 fluorescent binary number object, binary area fraction, binary area, and mean intensity in the dorsal horn” value is “significantly inhibited”. Also, the “mitochondrial cyclin b1 activity in the dorsal horn” value in the data set on mitochondrial cyclin B1 was “significantly reduced”. In addition, in data set [1], the “solubility in aqueous systems” value was “poorly soluble”. For the same compound, in data set [2], the “bioavailability after oral treatment” value was “very low”.
